Test results from US20070128217A1 (priority 2003, published 2007).

Columns and labels:
[1] = tested on: antibodies in sera from SARS patients (sera 1a, 1b, 2, 6, 37, 62, London, SARS-yellow, SARS-green); assay type: binding, human; parameters: Binding of serum 6 to linear peptides of protein X1 of SARS-CoV Urbani / Binding of serum 37 to linear peptides of protein X1 of SARS-CoV Urbani / Binding of serum 6 to looped/cyclic peptide (PEPSCAN-ELISA) / Binding of serum 37 to looped/cyclic peptide (PEPSCAN-ELISA) / Binding of serum 37 to looped/cyclic peptides of protein X1 of SARS-CoV Urbani / Binding of serum 6 to linear peptides of protein X2 / Binding of serum 37 to linear peptides of protein X2 / Binding of serum 37 to looped/cyclic peptides of protein X2 of SARS-CoV Urbani / Binding of serum 6 to linear peptides of protein M of SARS-CoV Urbani / Binding of serum 37 to linear peptides of protein M of SARS-CoV Urbani / Binding of serum 6 to looped/cyclic peptides of protein M of SARS-CoV Urbani / Binding of serum 37 to looped/cyclic peptides of protein M of SARS-CoV Urbani / Binding of serum 6 to linear peptides of protein X3 of SARS-CoV Urbani / Binding of serum 37 to linear peptides of protein X3 of SARS-CoV Urbani / Binding of serum 37 to looped/cyclic peptides of protein X3 of SARS-CoV Urbani / Binding of serum 6 to linear peptides of protein X4 of SARS-CoV Urbani / Binding of serum 37 to linear peptides of protein X4 of SARS-CoV Urbani / Binding of serum 37 to looped/cyclic peptides of protein X4 of SARS-CoV Urbani / Binding of serum 6 to linear peptides of protein X5 of SARS-CoV Urbani / Binding of serum 37 to linear peptides of protein X5 of SARS-CoV Urbani / Binding of serum 37 to looped/cyclic peptides of protein X5 of SARS-CoV Urbani / Binding of serum 6 to linear peptides of protein N of SARS-CoV Urbani / Binding of serum 37 to linear peptides of protein N of SARS-CoV Urbani / Binding of serum 6 to linear peptide (PEPSCAN-ELISA) / Binding of serum 1a to looped/cyclic peptides of protein N of SARS-CoV Urbani / Binding of serum 1b to looped/cyclic peptides of protein N of SARS-CoV Urbani / Binding of serum 2 to looped/cyclic peptides of protein N of SARS-CoV Urbani / Binding of serum 6 to looped/cyclic peptides of protein N of SARS-CoV Urbani / Binding of serum 37 to looped/cyclic peptides of protein N of SARS-CoV Urbani / Binding of serum 62 to looped/cyclic peptides of protein N of SARS-CoV Urbani / Binding of serum London to looped/cyclic peptides of protein N of SARS-CoV Urbani / Binding of serum SARS-green to looped/cyclic peptides of protein N of SARS-CoV Urbani: unit not given here
[2] = tested on: control sera (pooled serum of ten healthy LUMC hospital workers; commercial negative donor pooled serum from the Dutch bloodbank); assay type: binding, human; parameters: Binding of Control serum LUMC to linear peptides / Binding of Control serum Blood-bank to linear peptides / Binding of Control serum LUMC to looped peptides / Binding of Control Serum Blood-Bank to Looped peptides / Binding of Control serum LUMC to linear peptides of the protein M of SARS-CoV Urbani / Binding of Control serum Blood-bank to linear peptides of the protein M of SARS-CoV Urbani / Binding of Control serum LUMC to looped peptides of the protein M of SARS-CoV Urbani / Binding of Control Serum Blood-Bank to Looped peptides of the protein M of SARS-CoV Urbani: unit not given here
[3] = tested on: rabbit serum obtained by immunizing a rabbit with the SARS-CoV strain Frankfurt 1; assay type: binding; parameters: Binding of a rabbit serum to linear peptides / Binding of a rabbit serum to looped peptides / Rabbit serum linear peptides / Rabbit serum looped peptides / Binding of a rabbit serum to linear peptides of protein N of SARS-CoV Urbani (Rabbit serum linear peptides) / Binding of a rabbit serum to looped/cyclic peptides of protein N of SARS-CoV Urbani (Rabbit serum looped peptides): unit not given here

Sequence | Binding of Control Serum Blood-Bank to Looped peptides [2] | Binding of Control serum Blood-bank to linear peptides [2] | Binding of Control serum LUMC to linear peptides [2] | Binding of Control serum LUMC to looped peptides [2] | Binding of serum 1a to looped/cyclic peptides of protein X2 of SARS-CoV Urbani [1] | Binding of serum 1b to looped/cyclic peptides of protein X2 of SARS-CoV Urbani [1] | Binding of serum 2 to looped/cyclic peptides of protein X2 of SARS-CoV Urbani [1] | Binding of serum 6 to looped/cyclic peptides of protein X2 of SARS-CoV Urbani [1] | Binding of serum 37 to looped/cyclic peptides of protein X2 of SARS-CoV Urbani [1] | Binding of serum 62 to looped/cyclic peptides of protein X2 of SARS-CoV Urbani [1] | Binding of serum London to looped/cyclic peptides of protein X2 of SARS-CoV Urbani [1] | Binding of serum SARS-green to looped/cyclic peptides of protein X2 of SARS-CoV Urbani [1] | Binding of serum SARS-yellow to looped/cyclic peptides of protein X2 of SARS-CoV Urbani [1] | Binding of a rabbit serum to linear peptides [3] | Binding of a rabbit serum to looped peptides [3] | further results
LRARSVSPKLFIRQE | 0.6 | 0.6 | 0.6 | 0.7 |  |  |  |  |  |  |  |  |  |  |  | Binding of serum 1a to linear peptides of protein X4 of SARS-CoV Urbani [1]: 0.7; Binding of serum 1a to looped/cyclic peptides of protein X4 of SARS-CoV Urbani [1]: 0.8; Binding of serum 1b to linear peptides of protein X4 of SARS-CoV Urbani [1]: 0.6; Binding of serum 1b to looped/cyclic peptides of protein X4 of SARS-CoV Urbani [1]: 0.6; Binding of serum 2 to linear peptides of protein X4 of SARS-CoV Urbani [1]: 0.5; Binding of serum 2 to looped/cyclic peptides of protein X4 of SARS-CoV Urbani [1]: 0.6; Binding of serum 6 to linear peptides of protein X4 of SARS-CoV Urbani [1]: 0.8; Binding of serum 6 to looped/cyclic peptides of protein X4 of SARS-CoV Urbani [1]: 0.8; Binding of serum 37 to linear peptides of protein X4 of SARS-CoV Urbani [1]: 0.7; Binding of serum 37 to looped/cyclic peptides of protein X4 of SARS-CoV Urbani [1]: 0.7; Binding of serum 62 to linear peptides of protein X4 of SARS-CoV Urbani [1]: 0.8; Binding of serum 62 to looped/cyclic peptides of protein X4 of SARS-CoV Urbani [1]: 0.7; Binding of serum London to linear peptides of protein X4 of SARS-CoV Urbani [1]: 0.8; Binding of serum London to looped/cyclic peptides of protein X4 of SARS-CoV Urbani [1]: 0.4; Binding of serum SARS-green to linear peptides of protein X4 of SARS-CoV Urbani [1]: 0.6; Binding of serum SARS-green to looped/cyclic peptides of protein X4 of SARS-CoV Urbani [1]: 0.6; Binding of serum SARS-yellow to linear peptides of protein X4 of SARS-CoV Urbani [1]: 0.3; Binding of serum SARS-yellow to looped/cyclic peptides of protein X4 of SARS-CoV Urbani [1]: 0.7; Recognition of the peptide by the rabbit serum [3]: recognized
RRLLACLCKHKKVST | 0.2 | 0.9 | 0.7 | 0.3 | 0.2 | 0.1 | 0.1 | 0.2 | 0.2 | 0.4 | 0.2 | 0.2 | 0.2 | 0.6 | 0.3 | Recognition of the peptide by sera of SARS-CoV infected individuals, and form (linear, looped/cyclic) in which it is recognized [1]: recognized in linear form
FTTSLSLHKLLQTLV | 2.0 | 0.6 | 0.5 | 1.6 | 2.1 | 2.5 | 1.2 | 0.8 | 1.3 | 1.7 | 1.0 | 1.7 | 1.3 | 0.1 | 0.9 | Binding of serum 1a to linear peptides of protein X2 [1]: 0.5; Binding of serum 1b to linear peptides of protein X2 [1]: 0.5; Binding of serum 2 to linear peptides of protein X2 [1]: 0.4; Binding of serum 6 to linear peptides of protein X2 [1]: 0.6; Binding of serum 37 to linear peptides of protein X2 [1]: 0.5; Binding of serum 62 to linear peptides of protein X2 [1]: 0.5; Binding of serum London to linear peptides of protein X2 [1]: 0.4; Binding of serum SARS-green to linear peptides of protein X2 [1]: 0.5; Binding of serum SARS-yellow to linear peptides of protein X2 [1]: 0.4
